Measured values from patent US6759429B2, “Pyrrole derivatives” (Sumitomo Pharmaceuticals Co., Ltd., priority 2000, dated 2004).

System: TGF-β
Assay: Effects on the extracellular matrix production by TGF-β (proteoglycan production in fibroblast)
Type: cell-based
Conditions: Rattus norvegicus, NRK-49F cells, 3 ng/ml TGF-β, 24 h, [35S]-proteoglycan radioactivity, read-out: TGF-β inhibitory rate (%)
Procedure: Effects on the Extracellular Matrix Production by TGF-β The effect of the compounds of Examples on the production of proteoglycan when TGF-β was added to fibroblast was evaluated. NRK-49F cells (rat fibroblast) were cultured in Dulbecco's Modified Eagle Medium (DMEM: manufactured by GIBCO) containing 10% bovine serum, and used in this experiment. The cells were put into a 96-well plate in an amount of 2.5×10^4 cells/100 μl/well. On the next day, the medium in the plate was exchanged to the DMEM medium containing 3 ng/ml of TGF-β (manufactured by Nacalai Tesque, Inc.), 0.5 μCi/well of [^35S]-Na2SO4, and a test compound. […] The gel after electrophoresis was dried with a gel drier, and exposed to an imaging plate, which was analyzed with […] (manufactured by Fuji Photo Film). The radioactivity of proteoglycan to be electrophoresed was measured, and the TGF-β inhibitory rate was calculated by the following equation. TGF-β Inhibitory rate (%)=(A−B)×100/(A−C) A: Radioactivity in the presence of TGF-β without a test compound B: Radioactivity in the presence of TGF-β and a test compound C: Radioactivity in the absence of TGF-β and a test compound The TGF-β inhibitory rates (%) of the test compound at concentrations of 3 μM and 10 μM are shown in Table 1.

Structure (SMILES): COC(=O)c1cc(Cl)ccc1/C=C/Cn1cccc1C(=O)c1ccc(O)cc1 [Example 103]
- inhibition at 3 µM (test compound 3 μM): 55%
- inhibition at 10 µM (test compound 10 μM): 90%
